Reference: article PMC8269059, “Glycyrrhizin Derivatives Suppress Cancer Chemoresistance by Inhibiting Progesterone Receptor Membrane Component 1” (Cancers, 2021)
Entries after “also recorded” stand apart in the source; their conditions may differ.

Columns and labels:
PGRMC1 G111W = biological target: T1, PGRMC1 G111W (Homo sapiens, UniProt O00264, G111W); assay: ITC binding of GL to PGRMC1 mutant G111W
T1 construct: human PGRMC1 intracellular domain residues 43-195; GST (N, cleaved yes); made in house; host or cells: E. coli BL21 (DE3)
Description: (§1) Bacterial expression vectors pGEX-PGRMC1 (human PGRMC1 intracellular domain residues 43-195) and mammalian FLAG-tagged expression vector pCMV-FLAG-PGRMC1 (full-length) were constructed as described previously. Expression vectors for PGRMC1 point mutants were generated by site-directed mutagenesis with PCR. For construction of HMGB1 expression vector, human HMGB1 full-length cDNA was cloned from cDNA library of HCT116 cells using the primers (Forward: 5′-[…]-3′, Reverse: 5′-[…]-[…]-3′), digested with Bam HI and Sal I, and then ligated into pGEX6P1.
(§2) ITC experiments were performed at 298 K with ITC-Buffer (50 mM phosphate [pH 7.0]) using a MicroCal iTC200 (Malvern Panalytical, Malvern, UK). GL derivatives were dissolved in […] and titrated into 100 μM apo-PGRMC1, heme-bound-PGRMC1, or HMGB1 protein. Titration was performed by injecting 2 µL of the syringe solution at intervals of 120 s. Binding isotherms were analyzed using SEDPHAT [35]. The binding of AG205 to apo- or heme-PGRMC1 (100 μM) was analyzed using a concentration of 3 mM containing 1% DMSO. The binding affinities of GL derivatives for HMGB1 (80 µM) were analyzed using a concentration of 3 mM.

PGRMC1-PGRMC1 binding = biological target: T2, PGRMC1-PGRMC1 binding (Homo sapiens, UniProt O00264); assay: Co-immunoprecipitation of endogenous PGRMC1 with FLAG-PGRMC1 in HCT116 cells; type: cell-based; conditions: HCT116, co-IP of endogenous PGRMC1 with FLAG-PGRMC1, GL 12 hr
T2 construct: mammalian FLAG-tagged expression vector pCMV-FLAG-PGRMC1 (full-length); Endogenous PGRMC1 (25 kDa) was co-immunoprecipitated; expressed in transfected cells; host or cells: HCT116
Description: An expression vector of pCMV-3xFLAG-PGRMC1 or an empty vector was transfected into HCT116 cells or HuH7 cells using the transfection reagent Lipofectamine 2000 (Invitrogen). The cells were incubated overnight with either GL or GlucoGL. Cells were then lysed with NP40 lysis buffer (20 mM Tris-HCl [pH 7.5], 150 mM NaCl, and 1% NP40). The lysates were incubated with 10 μL of equilibrated anti-FLAG (M2) agarose for 60 min at room temperature. Bound proteins were washed three times and subjected to SDS-PAGE and visualized through western blotting using antibodies against FLAG, EGFR, and LDLR. For analysis of the endogenous PGRMC1-binding with FLAG-PGRMC1, HCT116 cells (1 × 10^7 cells) were treated with vehicle or 250 μM SA and/or 10 μM hemin for 48 h, and the cell lysates were co-immunoprecipitated with anti-FLAG (M2) agarose. Bound proteins (endogenous PGRMC1 and FLAG-tagged PGRMC1) were visualized through western blotting using antibody against PGRMC1.

PGRMC1 Q149F = biological target: T3, PGRMC1 Q149F (Homo sapiens, UniProt O00264, Q149F); assay: ITC binding of GL to PGRMC1 mutant Q149F
T3 construct: human PGRMC1 intracellular domain residues 43-195; GST (N, cleaved yes); made in house; host or cells: E. coli BL21 (DE3)
Description: as §1, §2

PGRMC1 A147W = biological target: T4, PGRMC1 A147W (Homo sapiens, UniProt O00264, A147W); assay: ITC binding of GL to PGRMC1 mutant A147W
T4 construct: human PGRMC1 intracellular domain residues 43-195; GST (N, cleaved yes); made in house; host or cells: E. coli BL21 (DE3)
Description: as §1, §2

apo-PGRMC1 = biological target: T5, apo-PGRMC1 (Homo sapiens, UniProt O00264); assay: ITC binding to apo-PGRMC1; conditions: apo-monomer form
T5 construct: human PGRMC1 intracellular domain residues 43-195; GST (N, cleaved yes); made in house; host or cells: E. coli BL21 (DE3)
Description: as §1
Expression vectors (pGEX-PGRMC1 (residues 43-195) or pGEX-HMGB1) were transformed into BL21 (DE3) competent E. coli cells, and the cells incubated in LB medium with ampicillin at 37 °C until the OD600 reached 0.8. Protein expression was induced by adding 1 mM isopropyl-β-thiogalactopyranoside (IPTG) and incubating at 37 °C for 4 h. […]
ITC experiments were performed at 298 K with ITC-Buffer (50 mM phosphate [pH 7.0]) using a MicroCal iTC200 (Malvern Panalytical, Malvern, UK). […] Binding isotherms were analyzed using SEDPHAT [35]. The binding of AG205 to apo- or heme-PGRMC1 (100 μM) was analyzed using a concentration of 3 mM containing 1% DMSO. […]

PGRMC1 F128W = biological target: T6, PGRMC1 F128W (Homo sapiens, UniProt O00264, F128W); assay: ITC binding of GL to PGRMC1 mutant F128W
T6 construct: human PGRMC1 intracellular domain residues 43-195; GST (N, cleaved yes); made in house; host or cells: E. coli BL21 (DE3)
Description: as §1, §2

PGRMC1 T146W = biological target: T7, PGRMC1 T146W (Homo sapiens, UniProt O00264, T146W); assay: ITC binding of GL to PGRMC1 mutant T146W
T7 construct: human PGRMC1 intracellular domain residues 43-195; GST (N, cleaved yes); made in house; host or cells: E. coli BL21 (DE3)
Description: as §1, §2

T1 sequence (O00264 43-195 G111W): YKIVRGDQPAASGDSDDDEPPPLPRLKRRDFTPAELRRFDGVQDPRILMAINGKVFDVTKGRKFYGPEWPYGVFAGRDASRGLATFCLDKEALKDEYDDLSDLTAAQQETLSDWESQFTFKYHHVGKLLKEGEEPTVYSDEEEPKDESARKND
T7 sequence (O00264 43-195 T146W): as the sequence (O00264 43-195 G111W) above, with W69G, T104W counted along it
T3 sequence (O00264 43-195 Q149F): as the sequence (O00264 43-195 G111W) above, with W69G, Q107F counted along it
T6 sequence (O00264 43-195 F128W): as the sequence (O00264 43-195 G111W) above, with W69G, F86W counted along it
T4 sequence (O00264 43-195 A147W): as the sequence (O00264 43-195 G111W) above, with W69G, A105W counted along it
T5 sequence (O00264 43-195): as the sequence (O00264 43-195 G111W) above, with W69G counted along it
T2 sequence (O00264 whole entry): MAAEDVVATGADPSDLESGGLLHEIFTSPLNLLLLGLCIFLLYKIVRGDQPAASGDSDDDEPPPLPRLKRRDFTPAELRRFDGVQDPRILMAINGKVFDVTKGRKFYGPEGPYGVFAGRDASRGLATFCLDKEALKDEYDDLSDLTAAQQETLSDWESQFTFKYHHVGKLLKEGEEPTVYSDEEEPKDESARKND
T2 sequence (O00264 whole entry): as above

- Kd (PGRMC1 G111W): 108 µM
- TΔS (PGRMC1 G111W): 4.39 K･kcal/mol
- ΔH (PGRMC1 G111W): -1.86 kcal/mol
- PGRMC1-PGRMC1 binding (PGRMC1-PGRMC1 binding): did not affect
- Kd (PGRMC1 Q149F): 403 µM
- TΔS (PGRMC1 Q149F): −10.62 K･kcal/mol
- ΔH (PGRMC1 Q149F): -14.37 kcal/mol
- Kd (PGRMC1 A147W): 158 µM
- TΔS (PGRMC1 A147W): 2.10 K･kcal/mol
- ΔG (PGRMC1 A147W): -5.19 kcal/mol
- ΔH (PGRMC1 A147W): -3.09 kcal/mol
- Kd (PGRMC1 F128W): 137 µM
- TΔS (PGRMC1 F128W): 0.38 K･kcal/mol
- ΔG (PGRMC1 F128W): -5.27 kcal/mol
- ΔH (PGRMC1 F128W): -4.90 kcal/mol
- Kd (PGRMC1 T146W): 97.9 µM
- TΔS (PGRMC1 T146W): 2.64 K･kcal/mol
- ΔH (PGRMC1 T146W): -2.17 kcal/mol
Compound: CC1(C)[C@@H](O[C@H]2O[C@H](C(=O)O)[C@@H](O)[C@H](O)[C@H]2O[C@@H]2O[C@H](C(=O)O)[C@@H](O)[C@H](O)[C@H]2O)CC[C@]2(C)[C@H]3C(=O)C=C4[C@@H]5C[C@@](C)(C(=O)O)CC[C@]5(C)CC[C@@]4(C)[C@]3(C)CC[C@@H]12 [Glycyrrhizin (GL), Glycyrrhizin]
- Binding to apo-PGRMC1 (apo-PGRMC1): No Binding; also recorded: not to the apo-monomer form
